# Assay results reported in US6593480B2 (Abbott Laboratories, priority 1999, dated 2003).
# pIC50: −log10 of the molar value.
# What was measured:
# [1] = test system: obese diabetic db/db transgenic mice; details: cited from earlier work
# [2] = target: T1, Human glucocorticoid receptors (Homo sapiens, UniProt P04150); test: Radioligand filter binding assay, displacement of 3(H)-dexamethasone from human glucocorticoid receptor cytosol; details: 1.7 μM test compound, inhibition of 3(H)-dex binding to hGR; for inhibition at 1.7 µM: read-out: GR BINDING (% Inhibition @ 1.7 μM)
# T1 construct: made in house; host or cells: Sf9 insect cells, recombinant baculovirus (BAC-TO-BAC)
# T1 sequence (P04150 1-777): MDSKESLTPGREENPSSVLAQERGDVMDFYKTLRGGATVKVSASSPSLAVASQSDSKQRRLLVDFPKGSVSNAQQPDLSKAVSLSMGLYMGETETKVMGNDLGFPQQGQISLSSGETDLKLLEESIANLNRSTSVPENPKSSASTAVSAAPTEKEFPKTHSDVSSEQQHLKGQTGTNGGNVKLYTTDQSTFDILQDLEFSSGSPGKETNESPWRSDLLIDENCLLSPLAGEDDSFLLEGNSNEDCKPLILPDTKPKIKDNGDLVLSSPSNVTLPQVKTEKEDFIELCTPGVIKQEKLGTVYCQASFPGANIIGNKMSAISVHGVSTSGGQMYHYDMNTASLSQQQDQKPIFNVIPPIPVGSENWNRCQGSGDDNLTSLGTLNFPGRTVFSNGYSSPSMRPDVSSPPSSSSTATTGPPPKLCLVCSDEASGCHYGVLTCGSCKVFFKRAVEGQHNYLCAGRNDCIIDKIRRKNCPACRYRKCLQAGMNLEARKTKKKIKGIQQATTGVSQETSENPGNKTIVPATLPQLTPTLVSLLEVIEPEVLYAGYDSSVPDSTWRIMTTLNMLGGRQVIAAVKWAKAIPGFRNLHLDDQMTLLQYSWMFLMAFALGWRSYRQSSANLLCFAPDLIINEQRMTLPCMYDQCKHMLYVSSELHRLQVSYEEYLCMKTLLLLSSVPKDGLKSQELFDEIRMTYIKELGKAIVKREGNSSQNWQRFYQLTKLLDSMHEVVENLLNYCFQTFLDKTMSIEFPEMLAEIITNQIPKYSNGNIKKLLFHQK
# Method: Dexamethasone hereafter referred to as dex was purchased from SIGMA. […] Human glucocorticoid receptors were extracted from Sf9 cells infected with a recombinant baculovirus transfer vector containing the cloned hGR genes. […] The recombinant baculovi, uses expressing hGR were amplified and used to infect Sf9 cells. Infected cells were harvested 48 hrs post infection. […] The concentration of hGR in the extract was measured as specific ^3(H)-dex binding with the G25-assay as described in J. Steroid Biochem. Molec. […] The extract was aliquoted and stored at −70° C.
# The filter binding assay: Dilution series of the test compounds and dex as reference were made from 10 mM (1 mM dex) stock solutions in DMSO. 10 μl of the dilutions was added in duplicates to the wells. The cell extracts were diluted 10 fold in EPMo +MTG buffer (1 mM EDTA, HPO4 20 mM (pH8), 6 mM MTG). […] 110 μl of the diluted ^3(H)-dex were added to the wells. The final concentration of hGR in the experiment was estimated to 1 nM. All preparations were made in ambient temperature (20-25° C.) on ice and with +4° C. temperated buffers. The plates were incubated over night at +4° C. (15-20hrs).
# The incubation was stopped by filtration through GF/B filter on the Tomtec Cellharvester. The filtration on the Tomtec Cellharvester was programmed as follows: 1) Preparation before filtration with EP buffer (1 mM EDTA 20 mM HPO4 (pH8)) 2×(Wash/Asp 0.6 sec., Asp 0.5 sec.); 2) Prewet of GF/B filter with EP+PEI buffer (EP buffer, 0.3% Polyesthylenimine) (Asp 0.8 sec.). 3) Filtration/harvesting of the 96-well incubation plate 3×(Wash/Asp 0.6 sec., Asp 0.5 sec.). The GF/B filter was dried for at least 1 hr at 65° C. A MeltiLex scintillation wax was melted onto the filter with the Microsealer. The filter was placed in a samplebag, which was thereafter trimmed with scissors to fit the filter cassette. The cassette were placed in the Microbeta and measured for 1 min/position, returning ccpm (conrected counts per minute).
# The Microbeta-instrument generates the mean cpm (counts per minute) value/minute and corrects for individual variations between the detectors thus generating corrected cpm values.
# [3] = target: T2, progesterone receptor (PR) (Homo sapiens, UniProt P06401); test: Radioligand binding assay with progesterone receptor cytosol (similar protocol)
# T2 sequence (P06401 1-933): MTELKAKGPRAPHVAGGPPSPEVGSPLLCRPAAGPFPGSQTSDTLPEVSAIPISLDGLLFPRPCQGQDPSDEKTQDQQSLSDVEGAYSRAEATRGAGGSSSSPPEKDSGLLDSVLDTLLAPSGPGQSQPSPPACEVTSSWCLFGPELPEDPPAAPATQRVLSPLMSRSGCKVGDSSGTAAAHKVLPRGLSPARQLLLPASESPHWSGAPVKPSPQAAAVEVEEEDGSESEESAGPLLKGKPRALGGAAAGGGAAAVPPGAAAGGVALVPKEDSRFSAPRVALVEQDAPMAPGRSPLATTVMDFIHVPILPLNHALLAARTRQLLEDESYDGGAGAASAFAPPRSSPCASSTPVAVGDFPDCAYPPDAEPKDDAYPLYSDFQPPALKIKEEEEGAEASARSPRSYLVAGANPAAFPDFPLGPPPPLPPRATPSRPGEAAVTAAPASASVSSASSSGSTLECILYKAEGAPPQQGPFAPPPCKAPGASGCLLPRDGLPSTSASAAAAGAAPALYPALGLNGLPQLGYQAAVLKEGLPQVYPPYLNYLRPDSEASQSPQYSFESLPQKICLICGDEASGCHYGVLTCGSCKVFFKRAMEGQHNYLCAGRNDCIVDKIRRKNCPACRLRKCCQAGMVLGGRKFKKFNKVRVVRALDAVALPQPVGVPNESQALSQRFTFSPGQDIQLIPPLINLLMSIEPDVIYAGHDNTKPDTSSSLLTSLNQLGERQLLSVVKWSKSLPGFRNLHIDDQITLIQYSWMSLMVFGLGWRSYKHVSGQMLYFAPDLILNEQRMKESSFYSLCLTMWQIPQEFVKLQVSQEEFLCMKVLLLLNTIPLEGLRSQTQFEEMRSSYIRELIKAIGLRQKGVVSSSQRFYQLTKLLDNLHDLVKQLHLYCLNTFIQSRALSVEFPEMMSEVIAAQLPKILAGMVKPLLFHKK
# From the text: Methods for Radioligand Binding Studies with Human Glucocorticoid and Progesterone Receptor Cytosol
# A similar protocol was employed to measure affinity of the compounds of the present invention for progesterone receptor (PR).
Molecule,"mRNA levels of PEPCK and glucose-6-phosphate in the liver ([1]; liver, db/db mice)",reduction of plasma glucose levels ([1]; obese diabetic db/db transgenic mice) [%],inhibition at 1.7 µM [2] [%],pIC50 [3],melting point [°C],GR BINDING (% Inhibition @ 1.7 μM) [2] [%]
CC#C[C@]1(O)CC[C@H]2[C@@H]3CCC4=CC(=O)CCC4=C3[C@@H](c3ccc(N(C)C)cc3)C[C@@]21C [mifepristone],reduces,50,–,–,–,–
"COc1cccc2c1-c1ccc(NS(C)(=O)=O)c(C)c1C(c1cccc(C(F)(F)F)c1)O2 (centres unmarked) [Example 1, (1-methoxy-6-(3-trifluoromethyl)phenyl-7-methyl-6H-dibenzo(b,d)pyran-8-yl)methanesulfonamide]",–,–,82.1,5.25,217 to 218,–
"COCCCCOc1cccc(C2Oc3cccc(OC)c3-c3ccc(NS(C)(=O)=O)cc32)c1 (centres unmarked) [Example 95, N-{1-methoxy-6-[3-(4-methoxybutoxy)phenyl]-6H-benzo[c]chromen-8-yl}methanesulfonamide]",–,–,90,< 6.00,–,–
"(1-methoxy-6-(inden-3-yl)-6H-dibenzo(b,d)pyran-8-yl)methanesulfonamide [Example 74]",–,–,–,6.01,–,86.7
"(1-difluoromethoxy-6-(4-(N-allyl-N-methylamino)phenyl)-6H-dibenzo(b,d)pyran-8-yl)-methanesulfonamide [Example 30]",–,–,–,5.89,–,85.6
"(1-methoxy-6-(2-thienyl)-6H-dibenzo(b,d)pyran-8-yl)methanesulfonamide [Example 54]",–,–,–,6.35,–,94.1
COc1cccc2c1-c1ccc(NS(C)(=O)=O)cc1C(c1ccc(C#N)cc1)O2 (centres unmarked) [Example 47],–,–,94.5,5.46,–,–
"(1-difluoromethoxy-6-allyl-6H-dibenzo(b,d)pyran-8-yl)-methanesulfonamide [Example 31]",–,–,–,7.10,–,90.0
